Assay results published in the NIST ThermoML archive (doi:10.1021/je900387e).

Assay: xn = mol fraction of the nth substance listed
Conditions: Liquid, Pycnometric method

CCCCBr [1-bromobutane] + O=C=O
Conditions	mass density [kg/m3]
332.4 K, 10370 kPa, x1 = 0.1495	915
332.4 K, 10440 kPa, x1 = 0.0461	587
332.4 K, 10440 kPa, x1 = 0.0683	677
332.4 K, 10510 kPa, x1 = 0.0989	783
332.4 K, 10520 kPa, x1 = 0.0461	595
332.4 K, 10560 kPa, x1 = 0.1495	918
332.4 K, 10570 kPa, x1 = 0.0683	686
332.4 K, 10590 kPa, x1 = 0.0461	603
332.4 K, 10650 kPa, x1 = 0.0989	788
332.4 K, 10710 kPa, x1 = 0.0683	694
332.4 K, 10720 kPa, x1 = 0.0461	615
332.4 K, 10750 kPa, x1 = 0.1495	921
332.4 K, 10820 kPa, x1 = 0.0989	793
332.4 K, 10870 kPa, x1 = 0.0683	703
332.4 K, 10880 kPa, x1 = 0.0461	627
332.4 K, 10940 kPa, x1 = 0.1495	924
332.4 K, 10990 kPa, x1 = 0.0989	798
332.4 K, 11050 kPa, x1 = 0.0683	712
332.4 K, 11070 kPa, x1 = 0.0461	640
332.4 K, 11120 kPa, x1 = 0.1495	927
332.4 K, 11180 kPa, x1 = 0.0989	804
332.4 K, 11240 kPa, x1 = 0.0683	721
332.4 K, 11270 kPa, x1 = 0.0461	654
332.4 K, 11310 kPa, x1 = 0.1495	930
332.4 K, 11390 kPa, x1 = 0.0989	808
332.4 K, 11460 kPa, x1 = 0.0683	730
332.4 K, 11510 kPa, x1 = 0.0461	668
332.4 K, 11530 kPa, x1 = 0.1495	933
332.4 K, 11600 kPa, x1 = 0.0989	814
332.4 K, 11720 kPa, x1 = 0.0683	739
332.4 K, 11730 kPa, x1 = 0.1495	936
332.4 K, 11780 kPa, x1 = 0.0461	683
332.4 K, 11830 kPa, x1 = 0.0989	819
332.4 K, 11970 kPa, x1 = 0.1495	939
332.4 K, 11980 kPa, x1 = 0.0461	689
332.4 K, 12000 kPa, x1 = 0.0683	749
332.4 K, 12060 kPa, x1 = 0.0989	825
332.4 K, 12190 kPa, x1 = 0.1495	942
332.4 K, 12220 kPa, x1 = 0.0461	703
332.4 K, 12330 kPa, x1 = 0.0461	708
332.4 K, 12330 kPa, x1 = 0.0683	759
332.4 K, 12330 kPa, x1 = 0.0989	830
332.4 K, 12450 kPa, x1 = 0.1495	945
332.4 K, 12620 kPa, x1 = 0.0989	836
332.4 K, 12650 kPa, x1 = 0.1495	948
332.4 K, 12670 kPa, x1 = 0.0683	770
332.4 K, 12920 kPa, x1 = 0.1495	951
332.4 K, 12930 kPa, x1 = 0.0989	842
332.4 K, 13080 kPa, x1 = 0.0683	780
332.4 K, 13170 kPa, x1 = 0.1495	954
332.4 K, 13250 kPa, x1 = 0.0989	847
332.4 K, 13470 kPa, x1 = 0.1495	958
332.4 K, 13540 kPa, x1 = 0.0683	791
332.4 K, 13600 kPa, x1 = 0.0989	853
332.4 K, 13750 kPa, x1 = 0.1495	961
332.4 K, 13980 kPa, x1 = 0.0989	859
332.4 K, 14040 kPa, x1 = 0.1495	964
332.4 K, 14050 kPa, x1 = 0.0683	802
332.4 K, 14320 kPa, x1 = 0.1495	967
332.4 K, 14360 kPa, x1 = 0.0989	865
332.4 K, 14630 kPa, x1 = 0.1495	970
332.4 K, 14640 kPa, x1 = 0.0683	814
332.4 K, 14810 kPa, x1 = 0.0989	871
332.4 K, 14910 kPa, x1 = 0.1495	973
332.4 K, 14960 kPa, x1 = 0.0683	820
332.4 K, 15090 kPa, x1 = 0.1495	975
335.9 K, 10180 kPa, x1 = 0.0683	589
335.9 K, 10200 kPa, x1 = 0.0683	591
335.9 K, 10210 kPa, x1 = 0.0683	593
335.9 K, 10240 kPa, x1 = 0.0683	597
335.9 K, 10250 kPa, x1 = 0.0683	601
335.9 K, 10310 kPa, x1 = 0.0683	607
335.9 K, 10380 kPa, x1 = 0.0683	614
335.9 K, 10450 kPa, x1 = 0.0683	620
335.9 K, 10540 kPa, x1 = 0.0683	627
335.9 K, 10610 kPa, x1 = 0.0683	634
335.9 K, 10700 kPa, x1 = 0.0683	641
335.9 K, 10790 kPa, x1 = 0.0683	649
335.9 K, 10940 kPa, x1 = 0.0683	660
335.9 K, 11140 kPa, x1 = 0.0683	672
335.9 K, 11350 kPa, x1 = 0.0683	684
335.9 K, 11590 kPa, x1 = 0.0683	697
335.9 K, 11870 kPa, x1 = 0.0683	710
335.9 K, 12340 kPa, x1 = 0.0683	728
335.9 K, 12930 kPa, x1 = 0.0683	747
335.9 K, 13690 kPa, x1 = 0.0683	767
335.9 K, 14350 kPa, x1 = 0.0683	783
335.9 K, 14890 kPa, x1 = 0.0683	794
335.9 K, 14990 kPa, x1 = 0.0683	797
335.9 K, 15110 kPa, x1 = 0.0683	800
337.4 K, 10000 kPa, x1 = 0.1495	872
337.4 K, 10190 kPa, x1 = 0.1495	876
337.4 K, 10210 kPa, x1 = 0.0461	479
337.4 K, 10240 kPa, x1 = 0.0989	714
337.4 K, 10260 kPa, x1 = 0.0461	482
337.4 K, 10290 kPa, x1 = 0.0989	717
337.4 K, 10310 kPa, x1 = 0.1495	879
337.4 K, 10340 kPa, x1 = 0.0461	492
337.4 K, 10360 kPa, x1 = 0.0989	722
337.4 K, 10430 kPa, x1 = 0.0461	502
337.4 K, 10430 kPa, x1 = 0.1495	881
337.4 K, 10440 kPa, x1 = 0.0989	726
337.4 K, 10520 kPa, x1 = 0.0989	730
337.4 K, 10540 kPa, x1 = 0.0461	513
337.4 K, 10580 kPa, x1 = 0.1495	884
337.4 K, 10590 kPa, x1 = 0.0989	735
337.4 K, 10660 kPa, x1 = 0.0461	524
337.4 K, 10690 kPa, x1 = 0.0989	739
337.4 K, 10690 kPa, x1 = 0.1495	887
337.4 K, 10790 kPa, x1 = 0.0461	537
337.4 K, 10790 kPa, x1 = 0.0989	743
337.4 K, 10810 kPa, x1 = 0.1495	889
337.4 K, 10890 kPa, x1 = 0.0989	748
337.4 K, 10910 kPa, x1 = 0.0461	549
337.4 K, 10970 kPa, x1 = 0.1495	893
337.4 K, 10990 kPa, x1 = 0.0989	752
337.4 K, 11060 kPa, x1 = 0.0461	563
337.4 K, 11100 kPa, x1 = 0.1495	895
337.4 K, 11130 kPa, x1 = 0.0989	757
337.4 K, 11230 kPa, x1 = 0.0461	577
337.4 K, 11240 kPa, x1 = 0.0989	762
337.4 K, 11250 kPa, x1 = 0.1495	898
337.4 K, 11370 kPa, x1 = 0.0461	588
337.4 K, 11370 kPa, x1 = 0.0989	766
337.4 K, 11420 kPa, x1 = 0.1495	901
337.4 K, 11510 kPa, x1 = 0.0461	599
337.4 K, 11520 kPa, x1 = 0.0989	771
337.4 K, 11580 kPa, x1 = 0.1495	904
337.4 K, 11680 kPa, x1 = 0.0461	611
337.4 K, 11680 kPa, x1 = 0.0989	776
337.4 K, 11740 kPa, x1 = 0.1495	906
337.4 K, 11830 kPa, x1 = 0.0989	781
337.4 K, 11860 kPa, x1 = 0.0461	623
337.4 K, 11920 kPa, x1 = 0.1495	909
337.4 K, 12010 kPa, x1 = 0.0989	786
337.4 K, 12070 kPa, x1 = 0.1495	912
337.4 K, 12080 kPa, x1 = 0.0461	636
337.4 K, 12200 kPa, x1 = 0.0989	791
337.4 K, 12280 kPa, x1 = 0.1495	915
337.4 K, 12320 kPa, x1 = 0.0461	649
337.4 K, 12390 kPa, x1 = 0.0989	796
337.4 K, 12490 kPa, x1 = 0.1495	918
337.4 K, 12580 kPa, x1 = 0.0461	663
337.4 K, 12620 kPa, x1 = 0.0989	801
337.4 K, 12680 kPa, x1 = 0.1495	921
337.4 K, 12850 kPa, x1 = 0.0989	806
337.4 K, 12890 kPa, x1 = 0.1495	924
337.4 K, 12910 kPa, x1 = 0.0461	674
337.4 K, 13110 kPa, x1 = 0.0989	812
337.4 K, 13130 kPa, x1 = 0.1495	927
337.4 K, 13260 kPa, x1 = 0.0461	693
337.4 K, 13320 kPa, x1 = 0.1495	930
337.4 K, 13360 kPa, x1 = 0.0989	817
337.4 K, 13530 kPa, x1 = 0.0461	703
337.4 K, 13550 kPa, x1 = 0.1495	933
337.4 K, 13650 kPa, x1 = 0.0989	822
337.4 K, 13770 kPa, x1 = 0.1495	936
337.4 K, 13920 kPa, x1 = 0.0989	828
337.4 K, 14020 kPa, x1 = 0.1495	939
337.4 K, 14220 kPa, x1 = 0.0989	833
337.4 K, 14300 kPa, x1 = 0.1495	942
337.4 K, 14530 kPa, x1 = 0.1495	945
337.4 K, 14570 kPa, x1 = 0.0989	839
337.4 K, 14750 kPa, x1 = 0.1495	948
337.4 K, 14880 kPa, x1 = 0.0989	844
337.4 K, 15050 kPa, x1 = 0.1495	951
337.4 K, 15220 kPa, x1 = 0.0989	850
337.9 K, 9120 kPa, x1 = 0.0245	280
337.9 K, 9150 kPa, x1 = 0.0245	283
337.9 K, 9220 kPa, x1 = 0.0245	288
337.9 K, 9290 kPa, x1 = 0.0245	292
337.9 K, 9370 kPa, x1 = 0.0245	297
337.9 K, 9440 kPa, x1 = 0.0245	303
337.9 K, 9520 kPa, x1 = 0.0245	308
337.9 K, 9600 kPa, x1 = 0.0245	314
337.9 K, 9680 kPa, x1 = 0.0245	320
337.9 K, 9750 kPa, x1 = 0.0245	325
337.9 K, 9830 kPa, x1 = 0.0245	331
337.9 K, 9920 kPa, x1 = 0.0245	338
337.9 K, 10000 kPa, x1 = 0.0245	345
337.9 K, 10080 kPa, x1 = 0.0245	352
337.9 K, 10180 kPa, x1 = 0.0245	359
337.9 K, 10270 kPa, x1 = 0.0245	367
337.9 K, 10360 kPa, x1 = 0.0245	375
337.9 K, 10450 kPa, x1 = 0.0245	383
337.9 K, 10560 kPa, x1 = 0.0245	391
337.9 K, 10620 kPa, x1 = 0.0245	397
337.9 K, 10630 kPa, x1 = 0.0245	399
